Results as given in DBAASP.
≈ marks a conversion by molar mass, not a printed value.

Assays:
Test in all cases: ≥ marks a high value that may be exact or a test limit, other limits are often not marked, values filed in µg/mL are converted to µM
[1] = system: Pseudomonas aeruginosa ATCC 9027
[2] = system: Candida albicans ATCC 36232
[3] = system: Staphylococcus epidermidis ATCC 12228
[4] = system: Shigella flexneri ATCC 203
[5] = system: Micrococcus luteus ATCC 9341
[6] = system: Escherichia coli ATCC 2592
[7] = system: Staphylococcus aureus ATCC 6538
[8] = system: Bacillus subtilis ATCC 6633
Staphylococcus aureus = system: Staphylococcus aureus
[9] = system: Corynebacterium diphtheriae ATCC 8024
[10] = system: Escherichia coli ESBL 64771
[11] = system: Staphylococcus aureus C623
[12] = system: Enterococcus faecalis f43559
[13] = system: Klebsiella pneumoniae ESBL 63575
[14] = system: Enterococcus faecalis ATCC 29212
[15] = system: Pseudomonas aeruginosa H1027
[16] = system: Enterococcus faecalis W61950
[17] = system: Escherichia coli ESBL 63103
Pseudomonas aeruginosa 9 = system: Pseudomonas aeruginosa 9
[18] = system: Enterobacter cloacae 218R
[19] = system: Klebsiella pneumoniae ESBL 61962
[20] = system: Stenotrophomonas maltophilia ATCC 13637
[21] = system: Enterococcus faecium t62764
[22] = system: Pseudomonas aeruginosa PAO1 H103
[23] = system: Pseudomonas aeruginosa LES400
[24] = system: Pseudomonas aeruginosa 213
[25] = system: Pseudomonas aeruginosa H1030
[26] = system: Enterococcus faecium mic80
[27] = system: Pseudomonas aeruginosa 198
[28] = system: Staphylococcus aureus ATCC 25923
[29] = system: Shigella dysenteriae ATCC 51302
[30] = system: Xanthomonas fragariae Xf349-9A
[31] = system: Erwinia amylovora PMV 6076
[32] = system: Xanthomonas campestris pv. Vesicatoria 2133-2
[33] = system: Pseudomonas syringae pv. actinidiae Psa3700.1.1
[34] = system: Pseudomonas syringae pv. syringae EPS 94
[35] = system: Streptococcus pneumoniae ATCC 49619
[36] = system: Bacillus subtilis ATCC 23631
[37] = system: Xanthomonas arboricola pv. pruni CFBP 5563
[38] = system: Pseudomonas aeruginosa ATCC 27553
[39] = system: Salmonella typhimurium ATCC 50013
Klebsiella pneumoniae = system: Klebsiella pneumoniae
[40] = system: Mannheimia haemolytica Serovar 1
[41] = system: Mannheimia haemolytica Serovar 2
Aspergillus fumigatus = system: Aspergillus fumigatus
[42] = system: Corynebacterium pseudotuberculosis ATCC 19410
Bibersteinia trehalosi = system: Bibersteinia trehalosi
[43] = system: Salmonella enterica subsp. arizonae
[44] = system: Mannheimia haemolytica Serovar 6
Pasteurella multocida = system: Pasteurella multocida
[45] = system: Pseudomonas aeruginosa PAO1

CC(C)[C@H](NC(=O)[C@H](CS)NC(=O)[C@@H](NC(=O)[C@H](CCCN=C(N)N)NC(=O)[C@H](CCCCN)NC(=O)CNC(=O)[C@H](CC(N)=O)NC(=O)[C@@H](N)CS)C(C)C)C(=O)N[C@@H](CS)C(N)=O [CNGKRVCVC]
MIC [1]: > 102 µM
MIC [2]: ≥ 102 µM
MIC [3]: > 102 µM
MIC [4]: ≥ 102 µM
MIC [5]: ≥ 102 µM
MIC [6]: ≥ 102 µM
MIC [7]: > 102 µM
MIC [8]: ≥ 102 µM
MIC (Staphylococcus aureus): > 102 µM
MIC [9]: ≥ 102 µM

CC[C@H](C)[C@H](NC(=O)[C@H](CCCN=C(N)N)NC(=O)[C@@H](N)CCCCN)C(=O)N[C@@H](CCSC)C(=O)N[C@@H](CCCCN)C(=O)N[C@@H](CC(C)C)C(=O)N[C@@H](CCCCN)C(=O)N[C@@H](CCSC)C(=O)N[C@@H](CCCN=C(N)N)C(=O)O [KRIMKLKMR]
MIC [10]: ≥ 226 µM
MIC [11]: ≥ 226 µM
MIC [12]: ≥ 226 µM
MIC [13]: ≥ 226 µM
MIC [14]: > 226 µM
MIC [15]: ≥ 226 µM
MIC [16]: ≥ 226 µM
MIC [17]: ≥ 226 µM
MIC (Pseudomonas aeruginosa 9): ≥ 226 µM
MIC [18]: ≥ 226 µM
MIC [19]: ≥ 226 µM
MIC [20]: ≥ 226 µM
MIC [21]: ≥ 226 µM
MIC [22]: ≥ 226 µM
MIC [23]: ≥ 226 µM
MIC [24]: ≥ 226 µM
MIC [25]: ≥ 226 µM
MIC [26]: ≥ 226 µM
MIC [27]: ≥ 226 µM
MIC [28]: > 226 µM

CC(C)C[C@H](NC(=O)CNC(=O)[C@H](CC(C)C)NC(=O)[C@H](Cc1ccccc1)NC(=O)[C@@H](NC(=O)[C@@H](N)CCCCN)C(C)C)C(=O)N[C@@H](CCCCN)C(=O)O [KVFLGLK]
MIC [29]: ≥ 59.7 µM
MIC [30]: ≥ 50 µM
MIC [31]: ≥ 50 µM
MIC [32]: ≥ 50 µM
MIC [33]: ≥ 50 µM
MIC [34]: ≥ 50 µM
MIC [35]: ≥ 69.6 µM
MIC [36]: 29.8 µM (≈ 24 µg/mL)
MIC [37]: ≥ 50 µM
MIC [38]: ≥ 79.6 µM
MIC [39]: ≥ 59.7 µM
MIC [28]: 49.7 µM (≈ 40 µg/mL)

CC[C@H](C)[C@H](NC(=O)[C@H](CCCN=C(N)N)NC(=O)[C@H](CCCN=C(N)N)NC(=O)[C@H](CC(C)C)NC(=O)[C@@H](N)CC(N)=O)C(=O)N[C@H](C(=O)N[C@@H](CCCN=C(N)N)C(=O)N[C@@H](CCCCN)C(=O)N[C@H](C(=O)N[C@H](C(=O)N[C@@H](Cc1cnc[nH]1)C(=O)N[C@H](C(=O)N[C@H](C(=O)N[C@@H](CCCCN)C(=O)N[C@@H](CCCCN)C(=O)N[C@@H](Cc1ccc(O)cc1)C(=O)O)[C@@H](C)CC)[C@@H](C)CC)[C@@H](C)CC)[C@@H](C)CC)[C@@H](C)CC [NLRRIIRKIIHIIKKY]
MIC (Klebsiella pneumoniae): 0.626 µM (≈ 1.3 µg/mL)
MIC [40]: 0.626 µM (≈ 1.3 µg/mL)
MIC [41]: 2.41 µM (≈ 5 µg/mL)
MIC (Aspergillus fumigatus): 6.4 µM (≈ 13.3 µg/mL)
MIC [42]: 9.63 µM (≈ 20 µg/mL)
MIC (Bibersteinia trehalosi): 1.01 µM (≈ 2.1 µg/mL)
MIC [43]: 2.41 µM (≈ 5 µg/mL)
MIC [44]: 1.2 µM (≈ 2.5 µg/mL)
MIC (Staphylococcus aureus): 4.81 µM (≈ 10 µg/mL)
MIC (Pasteurella multocida): 1.01 µM (≈ 2.1 µg/mL)
MIC [45]: 1.2 µM (≈ 2.5 µg/mL)

CC[C@H](C)[C@H](NC(=O)[C@H](Cc1cnc[nH]1)NC(=O)[C@@H](NC(=O)[C@@H](NC(=O)[C@H](CCCCN)NC(=O)[C@H](CCCN=C(N)N)NC(=O)[C@@H](NC(=O)[C@@H](NC(=O)[C@H](CCCN=C(N)N)NC(=O)[C@@H](N)CCCN=C(N)N)[C@@H](C)CC)[C@@H](C)CC)[C@@H](C)CC)[C@@H](C)CC)C(=O)N[C@H](C(=O)N[C@@H](CCCCN)C(N)=O)[C@@H](C)CC [RRIIRKIIHIIK]
MIC (Klebsiella pneumoniae): > 12.8 µM
MIC [40]: 12.8 µM (≈ 20 µg/mL)
MIC [41]: 6.67 µM (≈ 10.4 µg/mL)
MIC (Aspergillus fumigatus): 17.1 µM (≈ 26.7 µg/mL)
MIC [42]: 12.8 µM (≈ 20 µg/mL)
MIC (Bibersteinia trehalosi): 12.8 µM (≈ 20 µg/mL)
MIC [43]: 12.8 µM (≈ 20 µg/mL)
MIC [44]: 4.3 µM (≈ 6.7 µg/mL)
MIC (Staphylococcus aureus): > 12.8 µM
MIC (Pasteurella multocida): 12.8 µM (≈ 20 µg/mL)
MIC [45]: 1.09 µM (≈ 1.7 µg/mL)
